From patent US9107413B2, “Pesticidal compositions and processes related thereto” (priority 2011, dated 2015)
Where two headings read alike, the source gives them in different places.

Key:
Type in all cases: in vivo
GPA (Myzus persicae) = assay: Bioassay on green peach aphid (GPA), foliar spray on cabbage seedlings; settings: 72 h, read-out: % Mortality GPA 200 ppm
Experimental: Certain molecules disclosed in this document were tested against GPA using procedures described in the following example. In the reporting of the results, the “GPA Rating Table” was used (See Table Section).
Cabbage seedlings grown in 3-inch pots, with 2-3 small (3-5 cm) true leaves, were used as test substrate. The seedlings were infested with 20-50 GPA (wingless adult and nymph stages) one day prior to chemical application. Four pots with individual seedlings were used for each treatment. Test compounds (2 mg) were dissolved in 2 mL of acetone/methanol (1:1) solvent, forming stock solutions of 1000 ppm test compound. […] A hand-held aspirator-type sprayer was used for spraying a solution to both sides of […] leaves until runoff. Reference plants (solvent check) were sprayed with the diluent only containing 20% by volume of acetone/methanol (1:1) solvent. Treated plants were held in a holding room for three days at approximately 25° C. and ambient relative humidity (RH) prior to grading. Evaluation was conducted by counting the number of live aphids per plant under a microscope. […] Corrected % Control=100*(X−Y)/X • where • X=No. of live aphids on solvent check plants and • Y=No. of live aphids on treated plants
The results are indicated in the table entitled “Table 5: Biological Results” (See Table Section).

CEW (Helicoverpa zea) = assay: Bioassay on corn earworm (CEW), 128-well diet tray assay; settings: 168 h, read-out: % Mortality CEW 50 μg/cm^2
Experimental: (§1) Certain molecules disclosed in this document were tested against BAW and CEW using procedures described in the following examples. In the reporting of the results, the “BAW & CEW Rating Table” was used (See Table Section).
Bioassays on CEW (Helicoverpa zea)
Bioassays on CEW were conducted using a 128-well diet tray assay. […] Trays were covered with a clear self-adhesive cover and held at 25° C., 14:10 light-dark for five to seven days. Percent mortality was recorded for the larvae in each well; activity in the eight wells was then averaged. The results are indicated in the table entitled “Table 5: Biological Results” (See Table Section).

BAW (Spodoptera exigua) = assay: Bioassay on beet armyworm (BAW), 128-well diet tray assay; settings: 168 h, read-out: % Mortality BAW 50 μg/cm^2
Experimental: as §1
Bioassays on BAW (Spodoptera exigua)
Bioassays on BAW were conducted using a 128-well diet tray assay. […] Trays were covered with a clear self-adhesive cover and held at 25° C., 14:10 light-dark for five to seven days. Percent mortality was recorded for the larvae in each well; activity in the eight wells was then averaged. The results are indicated in the table entitled “Table 5: Biological Results” (See Table Section).

[1] = 200 ppm foliar spray on cabbage seedlings, three days, Abbott corrected % control
[2] = 50 μg/cm^2 on artificial diet, second instar larvae, five to seven days, 25° C.

In the case of Cc1cccc(C)c1/N=C(/N/N=C/c1ccc(-c2ncn(-c3ccc(OC(F)(F)F)cc3)n2)cc1)SCC#C[Si](C)(C)C [Compound 9C], the mortality at 200 ppm (GPA (Myzus persicae); foliar) is reported as 0%, the mortality at 50 µg/cm2 (CEW (Helicoverpa zea)) is reported as 50 to 100% and the mortality at 50 µg/cm2 (BAW (Spodoptera exigua)) is reported as 50 to 100%.
With Cc1cccc(C)c1/N=C(/N/N=C/c1ccc(-c2ncn(-c3ccc(OC(F)(F)F)cc3)n2)cc1)SCOC(=O)CNC(=O)OCc1ccccc1 [Compound 23C] the mortality at 200 ppm (GPA (Myzus persicae); foliar) was 0%, the mortality at 50 µg/cm2 (CEW (Helicoverpa zea)) was 50 to 100% and the mortality at 50 µg/cm2 (BAW (Spodoptera exigua)) was 50 to 100%.
For COc1cc(C)c(/N=C(/N/N=C/c2ccc(-c3ncn(-c4ccc(OC(F)(F)F)cc4)n3)cc2)SCOC(=O)CNC(=O)OCc2ccccc2)c(C)c1 [Compound 28C], the mortality at 200 ppm (GPA (Myzus persicae); foliar) was 0 to 80%, the mortality at 50 µg/cm2 (CEW (Helicoverpa zea)) was 50 to 100% and the mortality at 50 µg/cm2 (BAW (Spodoptera exigua)) was 50 to 100%.
With COc1cc(C)c(/N=C(\N/N=C/c2ccc(-c3ncn(-c4ccc(C(F)(F)F)cc4)n3)cc2)SCOC(=O)CNC(=O)OCc2ccccc2)c(C)c1 [Compound 45C] the mortality at 50 µg/cm2 (CEW (Helicoverpa zea)) was 50 to 100% and the mortality at 50 µg/cm2 (BAW (Spodoptera exigua)) was 50 to 100%.
Work on COc1cc(C)c(/N=C(/N/N=C/c2ccc(-c3ncn(-c4ccc(OC(F)(F)F)cc4)n3)cc2)SCC(=O)N2CCNCC2)c(C)c1 [Compound 65C] yielded a mortality at 200 ppm (GPA (Myzus persicae); [1]) of 0 to 80%, a mortality at 50 µg/cm2 (CEW (Helicoverpa zea); [2]) of 50 to 100% and a mortality at 50 µg/cm2 (BAW (Spodoptera exigua); [2]) of 50 to 100%.
In the case of CC(C)c1ccccc1N1C(=O)CS/C1=N\N=C\c1ccc(-c2ncn(-c3ccc(OC(F)(F)F)cc3)n2)cc1 [Compound 73C], the mortality at 200 ppm (GPA (Myzus persicae); [1]) is reported as 0 to 80%, the mortality at 50 µg/cm2 (CEW (Helicoverpa zea); [2]) is reported as 50 to 100% and the mortality at 50 µg/cm2 (BAW (Spodoptera exigua); [2]) is reported as 50 to 100%.
In the case of C/C(=N\N=C1/SCC(=O)N1c1ccccc1C(C)C)c1ccc(-c2ncn(-c3ccc(OC(F)(F)F)cc3)n2)cc1 [Compound 122C], the mortality at 50 µg/cm2 (CEW (Helicoverpa zea); [2]) is reported as 50 to 100% and the mortality at 50 µg/cm2 (BAW (Spodoptera exigua); [2]) is reported as 50 to 100%.
For FC(F)Oc1ccccc1N1CCCS/C1=N\N=C\c1ccc(-c2ncn(-c3ccc(OC(F)(F)F)cc3)n2)cc1 [Compound 200C], the mortality at 50 µg/cm2 (CEW (Helicoverpa zea); [2]) was 50 to 100% and the mortality at 50 µg/cm2 (BAW (Spodoptera exigua); [2]) was 50 to 100%.
Cc1cccc(Cl)c1N1/C(=N/N=C/c2ccc(-c3ncn(-c4ccc(OC(F)(F)F)cc4)n3)cc2)SCCC1C (stereo not shown) [Compound 227C] was tested, and the mortality at 50 µg/cm2 (CEW (Helicoverpa zea); [2]) was 50 to 100% and the mortality at 50 µg/cm2 (BAW (Spodoptera exigua); [2]) was 50 to 100%.
Work on CC1CCS/C(=N\N=C\c2ccc(-c3ncn(-c4ccc(OC(F)(F)F)cc4)n3)cc2)N1c1ccccc1OC(C)(F)F (stereo not shown) [Compound 229C] yielded a mortality at 50 µg/cm2 (CEW (Helicoverpa zea); [2]) of 50 to 100% and a mortality at 50 µg/cm2 (BAW (Spodoptera exigua); [2]) of 50 to 100%.
